What was measured:
[1] = test system: PAF-induced aggregation in washed rabbit platelets (WRPs); assay: Inhibition of PAF-induced aggregation in washed rabbit platelets; assay type: cell-based; conditions: for IC50: washed rabbit platelets, mean ± SD, read-out: IC50 (μM) towards PAF in WRPs
Description: The biological experiments of PAF-induced platelet aggregation as well as the evaluation of the inhibitory effect of its synthetic compounds were performed according to thoroughly described protocols. […] Briefly, in order to obtain the washed rabbit platelets (WRPs), platelet-rich plasma was washed on Ficoll–Paque cushions and adjusted to […] platelets/mL of Tyrode’s buffer, pH 7.2. The dilution of PAF was prepared using pyrogen-free 0.15 M NaCl containing 2.5 mg/mL of crystallized bovine serum albumin, required for dispersion of PAF. The compounds under investigation were firstly dissolved in the appropriate solvent that is: DMSO for pqx (0.010 M), H2O for CrCl3 × 3H2O (0.016 M), H2O for MnCl2 × 4H2O (0.004 M), DMSO-EtOH (4/1, v/v)) for FeCl2 × 4H2O (0.014 M), H2O for CoCl2 × 6H2O (0.010 M), H2O for NiCl2 × 6H2O (0.010 M), H2O for CuCl2 × 2H2O (0.008 M), H2O for ZnCl2 (0.013 M), DMSO for 1 (0.017 M), DMSO for 2 (0.010 M0, DMSO for 3 (0.004 M), DMSO for 4 (0.002 M), DMSO for 5 (0.003 M), DMSO-EtOH-H2O (25/1/1, v/v)) for 6 (0.006 M), DMSO for 7 (0.002 M) and aliquots of these solutions were then added in solutions (2.5 mg BSA/mL) of saline.
The experiment on the inhibitory effect of each compound of interest against the washed rabbit platelets (WRPs) aggregation was carried out as per the already described method. The platelets were from male New Zealand white rabbits (about 20), individually housed in stainless steel cages in an air-conditioned room (19 ± 1 °C, 55 ± 5% humidity on a 12/12 h artificial light/dark cycle). Blood samples were drawn from the main ear artery. Microliters of PAF in a final concentration of about 10^–10 M were added to the cuvette of the aggregometer, and the height of the platelet aggregation was monitored. The platelet aggregation induced by PAF, or thrombin was measured before (considered as 0% inhibition) and after the addition of various concentrations of the examined sample, creating a linear curve of percentage inhibition (ranging from 0 to 100%) versus different concentrations of the sample. From this curve, the concentration of the sample that inhibited 50% PAF-induced aggregation was calculated, and this value was defined as IC50 (Inhibitory concentration for 50% Inhibition). Dithiothreitol-insensitive PAF choline phosphotransferase, lyso-PAF:acetyl-CoA acetyltransferase and PAF-acetylhydrolase activity assays were performed on the homogenates of rabbit leukocytes while the activity of lipoprotein-associated phospholipase A2 was assessed on plasma as previously described. The experiments were performed in a model 400 vs. aggregometer of Chrono-Log (Havertown, PA, USA) coupled to a Chrono-Log recorder at 37 °C with constant stirring at 1200 rpm. The separation of platelets was performed with centrifugations in a 3L-R Heraeus Labofuge (Hvanau, Germany), a 400R Heraeus Labofuge and an RC-5B Sorvall (Newtown, CT, USA) refrigerated super speed centrifuge. Bovine serum albumin (BSA), PAF and analytical solvents for the biological assays were purchased from Sigma. […] The measurements were performed in duplicates for each sample concentration in three different WRP preparations, in order to ensure reproducibility. All experiments were also followed by appropriate control tests of the solvent used (saline solution of BSA, DMSO aliquots in a saline solution of BSA-2.5 mg BSA/mL saline- or just in saline), in WRPs. In the aggregometer cuvette (250 to 500 μL) the overall amount of added DMSO, contained in the solution of the sample under study, is not higher than 2–3 μL. All results were expressed as mean ± standard deviation (SD). The t-test was employed to assess differences among the IC50 values of each metal complex against either the PAF- or thrombin-induced aggregation. Differences were statistically significant when the statistical p-value was smaller than 0.05.

[2] = test system: HeLa cells (cervical cancer cells); assay: MTT cell viability assay, HeLa; assay type: cell-based, human; conditions: for IC50: 48 h exposure, mean ± SD; for cytotoxic effect in HeLa: 48 h, concentrations up to 100 μΜ
Description: In this report, cell viability tests were conducted in HEK293T and HeLa cancer cells by means of the colorimetric 3-(4,5-dimethylthiazol-2-yl)-2,5-diphenyl tetrazolium bromide (MTT) assay after exposure for 48 h. A HeLa cancer cell line was selected since it is widely used in cytotoxicity studies. For all complexes, a 10 mM stock solution in DMSO (H2O for cisplatin) was prepared and diluted appropriately to reach the final concentration reported in the Materials and Methods. The non-cancerous HEK293T cell line was used for comparison. The IC50 values of the first-row metal complexes, the pqx ligand and cisplatin, presented herein were calculated using a dose-response model, which was obtained from sigmoidal fitting of dose-response curves.
The HEK293T cell line (immortalized human embryonic kidney cells) was obtained from the Biomedical Research Foundation Academy of Athens (BRFAA), Athens, Greece and the HeLa cell line (cervical cancer cells) was obtained from the National Centre For Scientific Research Demokritos (NCSR Demokritos), Athens, Greece.
Pqx metal complexes were diluted in stock solutions of 10 mM in dimethyl sulfoxide (DMSO). A similar concentration of cisplatin dissolved in H2O was used. HEK293T and HeLa cells were cultured in Dulbecco’s modified Eagle’s medium (DMEM) with high glucose (Biosera, Nuaille, France) supplemented with 10% fetal bovine serum at 37 °C and 5% CO2. Cells were seeded in sterile tissue culture 96-well plates (SPL Life Science, Pochon, Republic of Korea) at a density of 3000 cells per well. After 24 h, the medium was removed and replaced with fresh media containing various concentrations (0.01 μΜ, 0.1 μΜ, 1 μΜ, 10 μΜ, 25 μΜ, 40 μΜ, 55 μΜ, 70 μΜ, 85 μΜ and 100 μΜ) of the compounds to be tested and was further incubated for 48 h at 37 °C. Dimethyl sulfoxide (DMSO) was used as a vehicle at ≤1%. To measure cytotoxicity, a culture medium containing the compounds (or DMSO) was removed, and 100 μL of 0.5 mg/mL MTT reagent (Applichem, Darmstadt, Germany) diluted in DMEM was added to the cells for 3 h at 37 °C. After 3 h incubation in identical conditions, MTT was removed and 200 μL of DMSO was added. Absorbance values of formazan were measured at 540 nm using a BioTek Synergy H1 microplate reader (Agilent, Santa Clara, CA, USA). All compounds were tested in triplicate. The results were statistically analyzed using the nonlinear regression by GraphPad PRISM (Version 9).

Compound	IC50 [1]	IC50 [2]	cytotoxic effect in HeLa [2]	fold more potent against PAF as opposed to thrombin-induced aggregation ([1]; ratio of thrombin and PAF IC50)
CS(C)=O.[Cl][Cu][Cl].c1ccc(-c2cnc3ccccc3n2)nc1 [Complex 3, [Cu(pqx)Cl2(DMSO)]]	10.6 ± 1.4 µM	27.2 ± 1.23 µM	–	–
[Cl][Zn][Cl].c1ccc(-c2cnc3ccccc3n2)nc1 [Complex 4, [Zn(pqx)Cl2]]	3.3 ± 0.3 µM	77.8 ± 6.51 µM	–	–
[Co(pqx)Cl2(DMF)] [Complex 2]	4.1 ± 0.6 µM	89.1 ± 7.77 µM	only slightly affected	–
[Fe(pqx)Cl2]2 [Complex 6]	1.79 ± 0.12 µM	70.9 ± 2.5 µM	–	–
[Mn(pqx)(H2O)2Cl2]2 [Complex 5]	39 ± 6 µM	–	practically non-cytotoxic	–
[Ni(pqx)Cl2]2 [Complex 7]	6.83 ± 0.42 µM	82.3 ± 9.49 µM	only slightly affected	–
mer-[Cr(pqx)Cl3(H2O)] [Complex 1]	4.5 ± 0.9 µM	82.8 ± 3.12 µM	only slightly affected	~12 fold

— publication PMC10574351, “First-Row Transition Metal Complexes Incorporating the 2-(2′-pyridyl)quinoxaline Ligand (pqx), as Potent Inflammatory Mediators: Cytotoxic Properties and Biological Activities against the Platelet-Activating Factor (PAF) and Thrombin” (Molecules, 2023)
